Laboratory results as given in patent US8415312B2, “Compound which is a nystatin derivative” (Biosergen AS, priority 2007, dated 2013).
Values after ≈ are worked out from the molar mass of the structure shown.

Key:
[1] = system: yeasts and filamentous fungi (moulds); experiment: Antifungal susceptibility study (1), overall comparison across the test organisms; type: cell-based; conditions: for antifungal activity, rank within the series: Tables 7 and 8; for anti-fungal activity compared with Amphotericin B and S44HP: Table 5 MICs
Method: The organisms used for susceptibility testing were: Candida albicans ATCC 14053, Cryptococcus humicolus ATCC 9949, Aspergillus niger ATCC 16404 and Fusarium oxysporum VKM F-140 (=CMI, IMI 90473). Organisms were stored on potato dextrose agar […] 50% glycerol solution at -70° C. For short-term storage, stock cultures were stored on agar […] 4° C. The cultures of yeasts were sub-cultured onto Sabouraud dextrose (SAB) agar and incubated for 24 hours at 35° C. (Candida albicans) or for 48 hours at 25° C. (Cryptococcus humicolus) to obtain a freshly grown pure culture. The cultures of moulds were sub-cultured onto potato dextrose agar and incubated for 7 days at 35° C. […] (Fusarium oxysporum) to ensure maximum sporulation. Sterile 96-well flat-bottomed microtitration plates were used for testing. 100 μl of diluted inocula were dispensed into each microdilution well containing 100 μl of the double dilutions of compounds. Drug-free and yeast/mould-free controls were included. Microdilution trays were incubated at 35° C. (Candida albicans and moulds) or 25° C. (Cryptococcus humicolus) without agitation and observed for the presence or absence of visible growth. […] Minimal inhibitory concentrations (MICs) were read at 48 hours.

[2] = system: Cryptococcus humicolus ATCC 9949; experiment: Antifungal susceptibility study (1), broth microdilution MIC; type: cell-based; conditions: lowest concentration preventing any visible growth, read at 48 hours, 25° C., RPMI 1640 pH 7.0
Method in brief: (§1)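 Broth microdilution in test medium at pH 7.0 with two-fold compound dilutions (DMSO stocks diluted 50-fold into medium), inoculated with freshly grown yeast cultures. Plates were incubated without agitation at 35° C. for C. albicans or 25° C. for C. humicolus. MIC was taken as the concentration with no visible growth, read at 48 hours.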

[3] = system: Candida albicans ATCC 14053; experiment: as above; type: cell-based; conditions: lowest concentration preventing any visible growth, read at 48 hours, 35° C., RPMI 1640 pH 7.0
Method in brief: as §1

[4] = system: mice (C57B1/6xDBA/2)F1 B6D2F1; conditions: single injection into tail vein, probit analysis
Method in brief: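 Male B6D2F1 mice, 20-22 g, given one tail-vein injection of antibiotic suspended with sodium deoxycholate in phosphate buffer, within 1-1.5 h of preparation. Doses spanned 0% to 100% lethality with at least 3 intermediate doses, in randomized groups of 6 mice.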

[5] = system: Candida albicans ATCC 10231; experiment: Antifungal susceptibility study (2), MIC50 by OD490 growth; type: cell-based; conditions: 50% growth inhibition from regression curve, M19 medium without NaCl, 30° C.
Method: The anti-fungal activity of several of the nystatin derivatives was further investigated. […] The anti-fungal activity of a number of the nystatin derivatives was therefore determined in a method which is designed to be more sensitive.
The test organism used for the further testing of polyene macrolide bioactivity was Candida albicans ATCC 10231, grown in 120 μl of standard M19 medium without NaCl (with an inoculum of 1000 cfu per well) and 30 μl of diluted polyene macrolide samples. The antibiotics were diluted in MeOH in series ensuring a spectrum of concentrations which yielded results ranging from complete growth inhibition to no inhibition of the test organism. The test organism cultures with antibiotic dilutions were incubated in 96-well microtiter plates at 30° C. without shaking, and growth was measured as OD490 after 12, 14 and 16 hours on a SpectraMax Plus microtiter plate reader. OD was plotted against antibiotic concentration, and MIC50 was estimated from the regression curve at 50% growth inhibition.

Compound | antifungal activity, rank within the series [1] | MIC Cryptococcus humicolus ATCC 9949 [2] [µg/mL] | MIC Candida albicans ATCC 14053 [3] [µg/mL] | LD50 [4] [mg/kg] | MTD [4] [mg/kg] | MIC50 [5] [µg/mL] | anti-fungal activity compared with Amphotericin B and S44HP [1]
CC1O[C@@H](O[C@H]2/C=C/C=C/C=C/C=C/C=C/C=C/C=C/[C@H](C)[C@@H](O)[C@@H](C)[C@H](C)OC(=O)C[C@H](O)C[C@H](O)C[C@H](O)CC[C@@H](O)[C@H](O)C[C@]3(O)C[C@H](O)[C@@H](C)[C@H](C2)O3)[C@H](O)C(NC(=O)[C@@H](N)CCCCN)[C@@H]1O (stereo partly drawn) [Compound 51, N-L-Lysyl-Compound 1] | most active derivative in this series with antifungal activity slightly higher than the parent antibiotic | 1 (≈ 0.978 µM) | 1 (≈ 0.978 µM) | 5.3 | 4.48 |  | 
C[C@@H]1[C@H](O)[C@@H](C)/C=C/C=C/C=C/C=C/C=C/C=C/C=C/[C@H](O[C@@H]2O[C@H](C)[C@@H](O)[C@H](N)[C@@H]2O)C[C@@H]2O[C@](O)(C[C@@H](O)C[C@@H](O)[C@H](O)CC[C@@H](O)C[C@@H](O)CC(=O)O[C@H]1C)C[C@H](O)[C@H]2C(=O)O [Amphotericin B, reference compound] |  | 1 (≈ 1.08 µM) | 1 (≈ 1.08 µM) | 2.8 | 2.01 | 0.12 (≈ 0.13 µM) | 
CC1C=CC=CC=CC=CC=CC=CC=CC(OC2OC(C)C(O)C(N)C2O)CC2OC(O)(CC(O)C(O)CCC(O)CC(O)CC(O)CC(=O)OC(C)C(C)C1O)CC(O)C2C(=O)NCCCN(C)C (stereo not drawn) [Compound 11, S44HP DMAP Amide] |  | 1 (≈ 0.992 µM) | 1 (≈ 0.992 µM) | 16.4 | 11.9 | 0.12 (≈ 0.119 µM) | comparable anti-fungal activity to Amphotericin B and S44HP
CC1C=CC=CC=CC=CC=CC=CC=CC(OC2OC(C)C(O)C(N)C2O)CC2OC(O)(CC(O)C(O)CCC(O)CC(O)CC(O)CC(=O)OC(C)C(C)C1O)CC(O)C2C.NC(CCC(=O)O)C(=O)O [Compound 29, Compound 1 L-glutamate] | most active salt of Compound 1 | 1 | 1 | 17.8 | 11.0 |  | 
CC1C=CC=CC=CC=CC=CC=CC=CC(OC2OC(C)C(O)C(N)C2O)CC2OC(O)(CC(O)C(O)CCC(O)CC(O)CC(O)CC(=O)OC(C)C(C)C1O)CC(O)C2C (stereo not drawn) [Compound 1] |  | 1 (≈ 1.12 µM) | 1 (≈ 1.12 µM) | 15.4 | 7.8 | 0.07 (≈ 0.0783 µM) | comparable anti-fungal activity to Amphotericin B and S44HP
